The text below walks through data of patent US7728146B2, “Enzyme inhibitors” (Probiodrug AG, priority 2006, dated 2010).

Molecules are shown by their SMILES.

The subject of data set [1] is liver cell carcinoma cell line Hep-G2. As to the kind of experiment: Cytotoxicity screening and LD50 determination on Hep-G2 (LDH, CytoTox-One). Type of data set: cell-based. The settings on record: for Cytotox 100 μM (%) HEPG2 / Viability 100 μM (%) HEP-G2: 24 h; for Cytotox 100 μM (%) HEPG2: LDH activity in cell culture media, lysed untreated cells = 100%; for Viability 100 μM (%) HEP-G2: LDH of lysed cells, untreated control = 100%; for Cytotox 100 μM (%) HEPG2 / Viability 100 μM (%) HEP-G2 / Observed cytotox / cytotoxic effects (summary in words): 100 μM; for Observed cytotox: Hep-G2, observation of the cells; for cytotoxic effects (summary in words): Hep-G2. As for the experimental part:
Cytotoxicity of the compounds may be screened using the liver cell carcinoma cell line Hep-G2.
(§1) After 24 h of cultivation in a 96 well plate (50 000 cells/well) compounds (dissolved in DMSO) are added and cytotoxicity and vitality of the cells are analysed after another 24 h of cultivation using the CytoTox-One Homogenoeous membrane toxicity assay (Promega).
Three concentrations (100 μM, 2 μM, 40 nM) of each compound are analysed in triplicates. The final DMSO concentration was 1%.
(§2) For cytotoxicity the LDH activity in the cell culture media after 24 h of incubation are analysed. The untreated control is set to 0% cytotoxicity. For the 100% value LDH activity of lysed untreated cells are analysed.
(§3) For viability cell culture media are removed from the cells and all cells are lysed using the lysis buffer. LDH activity is determined and untreated control is set to 100% viability.
(§4) For determination of LD50 the liver carcinoma cell line HEP-G2 and the neuroblastoma cell line SY5Y may be used. The effect of 8 serial dilutions of the compounds (highest concentration 1 mM) is investigated as described above.
The cytotoxicity of certain example compounds (in each case prepared by preparative synthesis) was screened using Hep-G2 cells. Compounds were tested in concentrations of 100 μM, 2 μM and 40 nM.

In data set [2] the target is T1, DP IV (Homo sapiens, UniProt P27487). Description: DP IV inhibition IC50, parallel-synthesis compounds tested directly following synthesis (without purification). Type of data set: biochemical. Also noted: IC50 DP4; other: tested directly following parallel synthesis, without purification; compounds of formula (Ib) from parallel synthesis, tested directly following synthesis. To be noted: DP IV inhibition; compounds of formula (Ib) from parallel synthesis, tested directly following synthesis (without purification); read-out: IC50. The essentials:
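Porcine kidney or recombinant human enzyme (~40-50 μU/ml, HEPES buffer) hydrolysing Gly-Pro-pNA at room temperature, with 5% DMSO final; 11-point 1:2 dilutions from 100 μM final, in duplicate. pNA release read at 405 nm over ~18 min; slopes vs solvent control give residual activity, and IC50 comes from a 4-parameter fit.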

The next data set deals with DP9 (Homo sapiens, UniProt Q86TI2). Description: DP9 assay. Type of data set: biochemical. The settings on record: for IC50: Gly Pro-AMC 0.25 mM; for Selectivity DP9(IC50)/DPIV(Ki): ratio IC50 DP9 / Ki DP IV. Here is the method:
(§5) Determination of IC50 values for DPII and DP9 are done similarly as described for DP IV.
For DP9 Gly Pro-AMC is used as substrate in a final concentration of 0.25 mM.

Data set [3] deals with dipeptidyl peptidase (DP IV) (UniProt P27487). As to the kind of experiment: Determination of IC50 against DP IV (hydrolysis of Gly-Pro-pNA). It counts as biochemical, porcine kidney or recombinant human. The settings on record: compounds obtained by preparative synthesis. Here is the method:
Determination of IC50 Against DP IV
Substances are screened for inhibition of dipeptidyl peptidase (DP IV) by their ability to inhibit the hydrolysis of the DP IV specific substrate Glycyl-Prolyl-4-Nitroanilide (Gly-Pro-pNA). All compounds are diluted in DMSO and IC50 will be determined with 11 serial dilutions (1:2) starting with an final concentration of 100 μM. The final DMSO concentration in the assay is 5% (v/v). The method was automated using a Tecan Genesis Freedom liquid handler and a Genius Pro (Tecan) microplate reader.
A stock solution of 0.102 M HEPES is prepared. Ionic strength (I=0.32) is adjusted by KCl and pH (pH 7.6) by KOH.
2.16 mM solution of Gly-Pro-pNA in deionized water is prepared.
All samples are dissolved in DMSO preparing a 10 mM stock solution.
DP IV from porcine kidney (pDP IV) or recombinant human DP IV (rhDP IV) is diluted in HEPES buffer to a final activity of approximately 40-50 μU*ml^−1. The DP IV is stored in a cooling rack (4° C.) on the liquid handler.
The assay may becarried out at room temperature using Freedom liquid handler connected with a Genios Pro microplate reader. Each sample is measured in duplicate. Each sample stock solution is prediluted with DMSO in a ratio of 1:5 in a polypropylen 96-well plate. From this predilution 10 serial (1:2) dilutions in DMSO are prepared. 13.5 μl of the 11 DMSO dilutions and DMSO alone are transferred to the measurement microplate (duplicates) and 86.5 μl water, 100 μl HEPES buffer and 50 μl substrate solution are added to each well. The enzymatic reaction is started by addition of 20 μl enzyme solution to each well, and then the microplate is immediately transferred to the microplate reader.
After short mixing (20 s) the release of 4-Nitroanilin (pNA) is monitored at 405 nm for 30 cycles (approx. 18 min).
Post assay calculations are done by the Magellan (Tecan) and Graphit Software. The linear slopes are calculated for each well and averaged for the duplicates. The residue activities are calculated in relation to a sample containing only solvent instead of inhibitor and expressed in %. Residue activities are plotted against the log of inhibitor concentrations and IC50 is calculated by an 4-parameter fitting ranging from 0 to 100%.

Data set [4] addresses T1, DP IV. Description: Ki and inhibition type, DP IV. Type of data set: biochemical. The settings on record: compounds obtained by preparative synthesis. As for the experimental part: Measurement of DP IV activities for Ki determination is carried out as described for IC50. For Ki determination samples were analysed in triplicates. 7 serial dilutions of the inhibitor (range calculated from the IC50 determination) in water are analyzed with 4 serial dilutions of the substrate.
Data are analysed by non-linear regression to the inhibitor equations using Graphit software. Ki-value and inhibition type are determined using the inhibitor equation (competitive, partiell competitive, non-competitive) which gives the best fitting results. […]

The target in another data set is DPII (Homo sapiens, UniProt Q9UHL4). Description: DPII assay. Type of data set: biochemical. The settings on record: for Selectivity DPII(IC50)/DPIV(Ki): ratio IC50 DPII / Ki DP IV. Here is the method: as §5
For DPII instead of the HEPES buffer a 0.2 M sodium acetate buffer pH 5.5 is used. As substrate Gly-Pro-AMC is used in a final concentration of 1 mM.

For data set [5], the system named is neuroblastoma cell line SY5Y. As to the kind of experiment: LD50 determination on SY5Y (LDH). It counts as cell-based. To be noted: 8 serial dilutions, highest concentration 1 mM. Here is the method:
as §1, §2, §3, §4

The mark [6] stands for this setting: sodium acetate buffer pH 5.5, Gly-Pro-AMC 1 mM.
[7] abbreviates: 8 serial dilutions, highest concentration 1 mM.

T1 sequence (P27487 whole entry): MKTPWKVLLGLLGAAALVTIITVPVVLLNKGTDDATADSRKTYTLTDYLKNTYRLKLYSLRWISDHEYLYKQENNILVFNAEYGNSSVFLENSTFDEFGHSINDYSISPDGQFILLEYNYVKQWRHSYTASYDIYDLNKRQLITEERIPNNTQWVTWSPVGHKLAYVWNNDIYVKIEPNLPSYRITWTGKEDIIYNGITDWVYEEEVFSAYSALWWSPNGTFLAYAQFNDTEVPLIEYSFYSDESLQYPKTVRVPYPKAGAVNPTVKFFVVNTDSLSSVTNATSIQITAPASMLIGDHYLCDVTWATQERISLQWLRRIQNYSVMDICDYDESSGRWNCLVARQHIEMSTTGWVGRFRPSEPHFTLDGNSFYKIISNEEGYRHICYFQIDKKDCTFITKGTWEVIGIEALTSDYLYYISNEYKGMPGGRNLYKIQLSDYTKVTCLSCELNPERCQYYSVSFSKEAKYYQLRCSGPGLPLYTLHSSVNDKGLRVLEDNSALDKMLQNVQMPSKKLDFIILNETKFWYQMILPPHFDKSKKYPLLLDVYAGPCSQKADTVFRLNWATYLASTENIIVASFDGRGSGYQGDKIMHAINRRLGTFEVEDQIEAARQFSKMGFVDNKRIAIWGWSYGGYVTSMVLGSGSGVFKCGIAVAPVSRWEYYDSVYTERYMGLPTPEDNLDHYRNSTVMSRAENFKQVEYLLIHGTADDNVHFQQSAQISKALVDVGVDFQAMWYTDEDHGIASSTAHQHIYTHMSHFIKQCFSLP
Chain of DP9 (Q86TI2 whole entry, species assumed): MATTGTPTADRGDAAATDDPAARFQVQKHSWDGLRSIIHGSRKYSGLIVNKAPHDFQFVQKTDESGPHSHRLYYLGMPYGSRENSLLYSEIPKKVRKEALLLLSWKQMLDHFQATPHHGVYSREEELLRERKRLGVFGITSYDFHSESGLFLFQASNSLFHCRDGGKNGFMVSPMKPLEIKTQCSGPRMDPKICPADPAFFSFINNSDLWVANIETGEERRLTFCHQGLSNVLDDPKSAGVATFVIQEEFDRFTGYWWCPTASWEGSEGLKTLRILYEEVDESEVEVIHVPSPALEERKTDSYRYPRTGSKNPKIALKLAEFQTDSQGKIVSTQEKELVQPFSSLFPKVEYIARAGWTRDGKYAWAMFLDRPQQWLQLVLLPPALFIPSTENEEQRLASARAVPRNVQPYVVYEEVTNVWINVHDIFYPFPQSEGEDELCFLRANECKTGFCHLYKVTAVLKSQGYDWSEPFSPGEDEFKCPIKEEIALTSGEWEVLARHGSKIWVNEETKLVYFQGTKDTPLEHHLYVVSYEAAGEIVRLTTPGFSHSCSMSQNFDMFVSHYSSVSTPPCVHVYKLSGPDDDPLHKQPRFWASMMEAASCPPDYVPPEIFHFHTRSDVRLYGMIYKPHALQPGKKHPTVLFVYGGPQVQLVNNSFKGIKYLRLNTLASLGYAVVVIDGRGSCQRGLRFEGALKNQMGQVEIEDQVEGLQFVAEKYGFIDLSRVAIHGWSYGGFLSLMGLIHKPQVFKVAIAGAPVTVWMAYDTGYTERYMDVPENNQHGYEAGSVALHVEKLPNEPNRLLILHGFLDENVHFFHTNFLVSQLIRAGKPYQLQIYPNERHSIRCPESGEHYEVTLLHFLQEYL

A word on the IC50: it is the concentration needed to halve the response being measured. As a reminder, the Ki is the dissociation constant of the complex between target and ligand, obtained from inhibition or displacement. Low values mean higher affinity, high ones lower affinity. `CC(C)(C)CCn1cnc(-c2ccc(Cl)cc2Cl)c1CN` [Example 23b, C-[5-(2,4-dichloro-phenyl)-3-(3,3-dimethyl-butyl)-3H-imidazol-4-yl]-methylamine]: in data set [1], the “Cytotox 100 μM (%) HEPG2” value came to 56.8%; the “Viability 100 μM (%) HEP-G2” value is 98.6%; the Observed cytotox is given as 50% lysis, 100%. Also, at DP IV [2], the IC50 was found to be 8200 nM. Besides, at DP9, the concentration for half-maximal inhibition (IC50) was 56100 nM and the “Selectivity DP9(IC50)/DPIV(Ki)” value was 2,377. Besides, the concentration for half-maximal inhibition (IC50) in data set [3] stood at 903 nM. On DP IV [4], this molecule registered a Ki of 23.6 nM.
As to `NCc1c(-c2ccc(Cl)cc2Cl)ncn1CCCn1ccnc1` [Example 104b, C-[5-(2,4-dichloro-phenyl)-3-(3-imidazol-1-yl-propyl)-3H-imidazol-4-yl]-methylamine], the “Cytotox 100 μM (%) HEPG2” value in data set [1] worked out at 2.9%. Further, the “Viability 100 μM (%) HEP-G2” value in data set [1] was found to be 104.1%. The IC50 at DP IV [2] was 5500 nM; at DPII (values >1e−4 are extrapolated values), 277000 nM; against DP9, 17500 nM; in data set [3] it was 408 nM. Further, at DPII, the “Selectivity DPII(IC50)/DPIV(Ki)” value is on record as 9,172. Moreover, the “Selectivity DP9(IC50)/DPIV(Ki)” value on DP9 is listed as 579. Also, at DP IV [4], the Ki is 30.2 nM.
On to `CC(C)(C)Cn1cnc(-c2ccc(Cl)cc2Cl)c1CN` [Example 11b, C-[5-(2,4-dichloro-phenyl)-3-(2,2-dimethyl-propyl)-3H-imidazol-4-yl]-methylamine], for which, in data set [1], the “Cytotox 100 μM (%) HEPG2” value came out at 4.6%, the “Viability 100 μM (%) HEP-G2” value was 113.1% and the “cytotoxic effects (summary in words)” value was “No cytotoxic effects”. Moreover, at DP IV [2], the concentration for half-maximal inhibition (IC50) was 6400 nM. For the same molecule, the “Selectivity DPII(IC50)/DPIV(Ki)” value on DPII is 1,457. Besides, the half-inhibitory concentration (IC50) against DPII (setting [6]) came to 83800 nM. Further, in data set [3], 2580 nM corresponded to half-maximal inhibition (IC50). Further, the inhibition constant (Ki) on DP IV [4] was 57.5 nM.
For `NCc1c(-c2ccc(Cl)cc2Cl)ncn1CCCCCO` [Example 38b, 5-[5-aminomethyl-4-(2,4-dichloro-phenyl)-imidazol-1-yl]-pentan-1-ol], the “Cytotox 100 μM (%) HEPG2” value in data set [1] is 0%. In data set [1], the “Viability 100 μM (%) HEP-G2” value stood at 106.7%. Further, the half-maximal inhibitory concentration (IC50) is 1900 nM on DP IV [2], 60600 nM on DPII (setting [6]), 46500 nM on DP9 and 848 nM in data set [3]. Besides, the “Selectivity DPII(IC50)/DPIV(Ki)” value on DPII is listed as 1,474. The “Selectivity DP9(IC50)/DPIV(Ki)” value at DP9 is 1,131. At DP IV [4], this molecule gave a Ki of 41.1 nM.
Consider `NCc1c(-c2ccc(Cl)cc2Cl)ncn1Cc1ccc2c(c1)OCO2` [Example 125b, C-[3-benzo[1,3]dioxol-5-ylmethyl-5-(2,4-dichloro-phenyl)-3H-imidazol-4-yl]-methylamine], for which the “Cytotox 100 μM (%) HEPG2” value in data set [1] is 10.6%. For the same molecule, the “Viability 100 μM (%) HEP-G2” value in data set [1] is 88.9%. Moreover, the “Selectivity DPII(IC50)/DPIV(Ki)” value at DPII is 471. Also, the concentration for half-maximal inhibition (IC50) at DPII (setting [6]) was determined as 17900 nM; against DP9, 74700 nM; in data set [3] it was 371 nM. Moreover, the “Selectivity DP9(IC50)/DPIV(Ki)” value on DP9 is on record as 1,966. Also, the Ki on DP IV [4] is 38 nM.
With `NCc1c(-c2ccc(Cl)cc2Cl)ncn1Cc1ccccc1OC(F)(F)F` [Example 129b, C-[5-(2,4-dichloro-phenyl)-3-(2-trifluoromethoxy-benzyl)-3H-imidazol-4-yl]-methylamine], in data set [1] (setting [7]), the “LD50 Viability HEP-G2” value worked out at 0.15 mM and the “LD50 cytotox HEP-G2” value is 0.16 mM. In addition, at DPII, the Ki is 4420 nM and the “Selectivity DPII(IC50)/DPIV(Ki)” value is recorded as 237. At DPII (setting [6]), this molecule registered a concentration for half-maximal inhibition (IC50) of 1550 nM. Further, on DP9, the IC50 came out at 53200 nM and the “Selectivity DP9(IC50)/DPIV(Ki)” value was 8,135. Also, in data set [5], the “LD50 Viability SY5Y” value is 0.13 mM and the “LD50 cytotox SY5Y” value stood at 0.21 mM. The molecule also came in with a concentration for half-maximal inhibition (IC50) in data set [3] of 70 nM. In addition, the affinity on DP IV [4], expressed as Ki, was 6.54 nM.
On to `NCc1c(-c2ccc(Cl)cc2Cl)ncn1CCc1ccccc1Cl` [Example 21b, C-[3-[2-(2-chloro-phenyl)-ethyl]-5-(2,4-dichloro-phenyl)-3H-imidazol-4-yl]-methylamine], for which, in data set [1], the “Cytotox 100 μM (%) HEPG2” value was determined as 97.1%, the “Viability 100 μM (%) HEP-G2” value is recorded as 9.8% and the Observed cytotox is recorded as 100% lysis. Besides, the 50% inhibitory concentration (IC50) at DP IV [2] came out at 1900 nM. At DPII, the Ki was determined as 3180 nM and the “Selectivity DPII(IC50)/DPIV(Ki)” value was 157. At DPII (setting [6]), this molecule gave an IC50 of 4620 nM. For the same molecule, at DP9, affinity was put at a Ki of 925 nM; the midpoint of inhibition, the IC50, lay at 1280 nM; the “Selectivity DP9(IC50)/DPIV(Ki)” value is on record as 44. The same molecule gave an IC50 in data set [3] of 514 nM. The molecule also displayed an inhibitory constant (Ki) on DP IV [4] of 29.4 nM.
As to `CCCCCn1cnc(-c2ccc(Cl)cc2Cl)c1CN` [Example 12b, C-[5-(2,4-Dichloro-phenyl)-3-pentyl-3H-imidazol-4-yl]-methylamine], the “cytotoxic effects (summary in words)” value in data set [1] is given as “No cytotoxic effects”. For the same molecule, the IC50 at DP IV [2] is 6400 nM.
